34 molecules from US9156845B2, “4-(substituted amino)-7H-pyrrolo[2,3-d] pyrimidines as LRRK2 inhibitors” (Pfizer Inc., priority 2012, dated 2015) can be followed below.

pIC50: −log10 of the molar value.

The target of test [1] is GST-tagged truncated LRRK2 (Homo sapiens (Human), UniProt Q5S007). Put plainly: LRRK2 Lantha Screen kinase assay. Format: biochemical. Particulars: geometric mean of 2-5 determinations unless otherwise indicated (a: >=6 determinations; b: single determination); read-out: LRRK2 WT IC50.
The target of another test is mutant G2019S LRRK2 (Homo sapiens (Human), UniProt Q5S007, G2019S). As to the kind of experiment: LRRK2 Lantha Screen kinase assay, mutant enzyme. Particulars: geometric mean of 2-5 determinations unless otherwise indicated (a: >=6 determinations; b: single determination). Format: biochemical.
Sequence of mutant G2019S LRRK2 (Q5S007 970-2527 G2019S): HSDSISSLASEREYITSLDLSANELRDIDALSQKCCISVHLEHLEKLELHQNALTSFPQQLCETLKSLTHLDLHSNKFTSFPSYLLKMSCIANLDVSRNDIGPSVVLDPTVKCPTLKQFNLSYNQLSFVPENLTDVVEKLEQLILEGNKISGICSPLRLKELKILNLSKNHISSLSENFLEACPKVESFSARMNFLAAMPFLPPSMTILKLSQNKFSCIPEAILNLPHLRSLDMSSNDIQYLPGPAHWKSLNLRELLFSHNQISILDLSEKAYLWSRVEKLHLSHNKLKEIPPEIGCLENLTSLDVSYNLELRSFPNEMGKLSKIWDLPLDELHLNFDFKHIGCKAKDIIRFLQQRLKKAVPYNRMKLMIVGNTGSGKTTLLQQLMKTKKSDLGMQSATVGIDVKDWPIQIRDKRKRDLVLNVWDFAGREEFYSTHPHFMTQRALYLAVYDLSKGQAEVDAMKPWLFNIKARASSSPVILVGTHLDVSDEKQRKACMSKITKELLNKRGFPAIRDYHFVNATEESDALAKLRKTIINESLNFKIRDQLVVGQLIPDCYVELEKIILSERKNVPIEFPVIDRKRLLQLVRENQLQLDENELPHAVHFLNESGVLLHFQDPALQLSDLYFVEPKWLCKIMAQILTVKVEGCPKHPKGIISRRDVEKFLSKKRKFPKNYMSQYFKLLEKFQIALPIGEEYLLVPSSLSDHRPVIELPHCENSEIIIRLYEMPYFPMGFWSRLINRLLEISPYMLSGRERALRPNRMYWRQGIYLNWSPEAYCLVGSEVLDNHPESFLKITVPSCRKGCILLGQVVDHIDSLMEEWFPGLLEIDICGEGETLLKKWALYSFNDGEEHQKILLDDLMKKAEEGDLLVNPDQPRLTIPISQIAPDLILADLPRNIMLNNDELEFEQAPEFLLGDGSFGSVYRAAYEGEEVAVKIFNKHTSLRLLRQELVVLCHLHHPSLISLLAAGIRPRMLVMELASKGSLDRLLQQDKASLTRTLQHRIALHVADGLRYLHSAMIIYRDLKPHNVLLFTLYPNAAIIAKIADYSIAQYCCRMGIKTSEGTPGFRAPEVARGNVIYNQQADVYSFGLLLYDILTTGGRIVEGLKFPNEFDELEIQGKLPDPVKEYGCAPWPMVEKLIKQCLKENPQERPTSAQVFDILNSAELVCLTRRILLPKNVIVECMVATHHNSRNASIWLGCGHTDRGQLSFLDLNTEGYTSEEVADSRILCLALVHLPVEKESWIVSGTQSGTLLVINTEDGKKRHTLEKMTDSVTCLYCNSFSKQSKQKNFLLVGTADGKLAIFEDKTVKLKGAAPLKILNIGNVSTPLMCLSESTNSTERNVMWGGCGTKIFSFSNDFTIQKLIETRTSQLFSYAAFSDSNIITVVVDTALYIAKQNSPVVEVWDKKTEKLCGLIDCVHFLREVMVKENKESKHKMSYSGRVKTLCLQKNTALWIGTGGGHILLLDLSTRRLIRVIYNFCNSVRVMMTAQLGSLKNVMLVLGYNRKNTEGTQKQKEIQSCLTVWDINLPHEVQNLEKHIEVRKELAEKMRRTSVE

Sequence of GST-tagged truncated LRRK2 (Q5S007 970-2527): as the sequence (Q5S007 970-2527 G2019S) above, with S1050G counted along it

With `CN(C)C(=O)CCNc1ncnc2[nH]cc(-c3cccc(C#N)c3)c12` [Example 31, N^3-[5-(3-cyanophenyl)-7H-pyrrolo[2,3-d]pyrimidin-4-yl]-N,N-dimethyl-beta-alaninamide], the negative-log IC50 (pIC50) in test [1] was 7.27; against mutant G2019S LRRK2, 6.61.

On to `N#Cc1cccc(-c2c[nH]c3ncnc(N4CCC(F)(F)CC4)c23)c1` [Example 32, 3-[4-(4,4-difluoropiperidin-1-yl)-7H-pyrrolo[2,3-d]pyrimidin-5-yl]benzonitrile], for which the values for the pIC50 (in test [1]; against mutant G2019S LRRK2) were 7.17 and 6.48, respectively.

Turning to `N#Cc1cccc(-c2c[nH]c3ncnc(N4CCC(F)CC4)c23)c1` [Example 33, 3-[4-(4-fluoropiperidin-1-yl)-7H-pyrrolo[2,3-d]pyrimidin-5-yl]benzonitrile], the pIC50 in test [1] is 7.77; at mutant G2019S LRRK2, 7.02.

For the molecule `N#Cc1cccc(-c2c[nH]c3ncnc(N4CCC(F)CC4)c23)c1` [Example 33A, 3-[4-(4-fluoropiperidin-1-yl)-7H-pyrrolo[2,3-d]pyrimidin-5-yl]benzonitrile], the pIC50 in test [1] was 7.77; against mutant G2019S LRRK2, 7.25.

Take `N#Cc1cccc(-c2c[nH]c3ncnc(N4CCC(c5cc[nH]n5)CC4)c23)c1` [Example 34, 3-{4-[4-(1H-pyrazol-3-yl)piperidin-1-yl]-7H-pyrrolo[2,3-d]pyrimidin-5-yl}benzonitrile]: the negative-log IC50 (pIC50) is 7.16 in test [1] and 6.87 on mutant G2019S LRRK2.

`N#Cc1cccc(-c2c[nH]c3ncnc(N4CC[C@H](F)C4)c23)c1` [Example 35, 3-{4-[(3S)-3-fluoropyrrolidin-1-yl]-7H-pyrrolo[2,3-d]pyrimidin-5-yl}benzonitrile]: the pIC50 in test [1] is 7.52; against mutant G2019S LRRK2, 6.81.

Turning to `N#Cc1cccc(-c2c[nH]c3ncnc(N4CCOC(c5cc[nH]n5)C4)c23)c1` (centres unmarked) [Example 36, 3-{4-[2-(1H-pyrazol-3-yl)morpholin-4-yl]-7H-pyrrolo[2,3-d]pyrimidin-5-yl}benzonitrile], the negative logarithm of the IC50 (pIC50) in test [1] was 7.37; on mutant G2019S LRRK2, 6.62.

For the molecule `N#Cc1cccc(-c2c[nH]c3ncnc(N4CCCC(c5cc[nH]n5)C4)c23)c1` (centres unmarked) [Example 37, 3-{4-[3-(1H-pyrazol-3-yl)piperidin-1-yl]-7H-pyrrolo[2,3-d]pyrimidin-5-yl}benzonitrile], the negative-log IC50 (pIC50) in test [1] was 7.08; at mutant G2019S LRRK2, 6.70.

Take `N#Cc1cccc(-c2c[nH]c3ncnc(N4CCCC(c5ncc[nH]5)C4)c23)c1` (centres unmarked) [Example 38, 3-{4-[3-(1H-imidazol-2-yl)piperidin-1-yl]-7H-pyrrolo[2,3-d]pyrimidin-5-yl}benzonitrile]: the pIC50 is 7.28 in test [1] and 6.48 against mutant G2019S LRRK2.

As for `CN1CCCC(Nc2ncnc3[nH]cc(-c4cccc(C#N)c4)c23)C1` (centres unmarked) [Example 39, 3-{4-[(1-methylpiperidin-3-yl)amino]-7H-pyrrolo[2,3-d]pyrimidin-5-yl}benzonitrile], the results for the negative-log IC50 (pIC50) (in test [1]; on mutant G2019S LRRK2) were 7.11 and 6.61, respectively.

Regarding `N#Cc1cccc(-c2c[nH]c3ncnc(N4CCCC5(CNC(=O)C5)C4)c23)c1` (centres unmarked) [Example 40, 3-[4-(3-oxo-2,7-diazaspiro[4.5]dec-7-yl)-7H-pyrrolo[2,3-d]pyrimidin-5-yl]benzonitrile], the pIC50 in test [1] is 7.46; at mutant G2019S LRRK2, 6.92.

For `N#Cc1cccc(-c2c[nH]c3ncnc(NCCN4CCOCC4)c23)c1` [Example 42, 3-(4-{[2-(morpholin-4-yl)ethyl]amino}-7H-pyrrolo[2,3-d]pyrimidin-5-yl)benzonitrile], the pIC50 is 7.05 in test [1] and 6.31 against mutant G2019S LRRK2.

`N#Cc1cccc(-c2c[nH]c3ncnc(N4CCCC5(CCOC5)C4)c23)c1` (centres unmarked) [Example 43, 3-[4-(2-oxa-7-azaspiro[4.5]dec-7-yl)-7H-pyrrolo[2,3-d]pyrimidin-5-yl]benzonitrile]: the pIC50 in test [1] is 7.47; on mutant G2019S LRRK2 it was 6.61.

As for `CC(=O)NC1CCN(c2ncnc3[nH]cc(-c4cccc(C#N)c4)c23)CC1` [Example 44, N-{1-[5-(3-cyanophenyl)-7H-pyrrolo[2,3-d]pyrimidin-4-yl]piperidin-4-yl}acetamide], the figures for the negative logarithm of the IC50 (pIC50) (in test [1]; against mutant G2019S LRRK2) were 7.30 and 6.72, respectively.

As for `C[C@H]1CCCN(c2ncnc3[nH]cc(-c4ccc5[nH]ncc5c4)c23)C1` [Example 45, 5-(1H-indazol-5-yl)-4-[(3S)-3-methylpiperidin-1-yl]-7H-pyrrolo[2,3-d]pyrimidine], the negative logarithm of the IC50 (pIC50) in test [1] was 7.17; against mutant G2019S LRRK2, 7.18.

Take `C[C@H]1CCCN(c2ncnc3[nH]cc(-c4cccc(S(N)(=O)=O)c4)c23)C1` [Example 46, 3-{4-[(3S)-3-methylpiperidin-1-yl]-7H-pyrrolo[2,3-d]pyrimidin-5-yl}benzenesulfonamide]: the negative logarithm of the IC50 (pIC50) in test [1] was 7.62; on mutant G2019S LRRK2 it was 7.48.

Consider `C[C@H]1CCCN(c2ncnc3[nH]cc(-c4ccccc4F)c23)C1` [Example 47, 5-(2-fluorophenyl)-4-[(3S)-3-methylpiperidin-1-yl]-7H-pyrrolo[2,3-d]pyrimidine], for which the pIC50 in test [1] is 7.01; against mutant G2019S LRRK2, 6.91.

With `C[C@H]1CCCN(c2ncnc3[nH]cc(-c4cccc5[nH]ncc45)c23)C1` [Example 48, 5-(1H-indazol-4-yl)-4-[(3S)-3-methylpiperidin-1-yl]-7H-pyrrolo[2,3-d]pyrimidine], the pIC50 in test [1] is 8.00; against mutant G2019S LRRK2, 7.85.

`Cc1cc(-c2c[nH]c3ncnc(N4CCC[C@H](C)C4)c23)cnc1F` [Example 49, 5-(6-fluoro-5-methylpyridin-3-yl)-4-[(3S)-3-methylpiperidin-1-yl]-7H-pyrrolo[2,3-d]pyrimidine]: the negative logarithm of the IC50 (pIC50) (in test [1]; on mutant G2019S LRRK2) was 7.19 each time.

`C[C@H]1CCCN(c2ncnc3[nH]cc(-c4ccc5c(c4)CNC5=O)c23)C1` [Example 50, 5-{4-[(3S)-3-methylpiperidin-1-yl]-7H-pyrrolo[2,3-d]pyrimidin-5-yl}-2,3-dihydro-1H-isoindol-1-one]: the pIC50 (in test [1]; against mutant G2019S LRRK2) was 7.48 in each case.

For `C[C@H]1CCCN(c2ncnc3[nH]cc(-c4cccnc4)c23)C1` [Example 51, 4-[(3S)-3-methylpiperidin-1-yl]-5-(pyridin-3-yl)-7H-pyrrolo[2,3-d]pyrimidine], the results for the negative logarithm of the IC50 (pIC50) (in test [1]; against mutant G2019S LRRK2) were 7.25 and 7.02, respectively.

As for `Cc1cncc(-c2c[nH]c3ncnc(N4CCC[C@H](C)C4)c23)c1` [Example 52, 4-[(3S)-3-methylpiperidin-1-yl]-5-(5-methylpyridin-3-yl)-7H-pyrrolo[2,3-d]pyrimidine], the negative logarithm of the IC50 (pIC50) in test [1] is 7.82; against mutant G2019S LRRK2, 7.72.

Turning to `C[C@H]1CCCN(c2ncnc3[nH]cc(-c4cnc5[nH]ccc5c4)c23)C1` [Example 53, 4-[(3S)-3-methylpiperidin-1-yl]-5-(7H-pyrrolo[2,3-b]pyridin-5-yl)-7H-pyrrolo[2,3-d]pyrimidine], the pIC50 in test [1] is 7.13; against mutant G2019S LRRK2, 7.16.

Consider `C[C@H]1CCCN(c2ncnc3[nH]cc(-c4ccc5c(c4)C(=O)NC5)c23)C1` [Example 54, 6-{4-[(3S)-3-methylpiperidin-1-yl]-7H-pyrrolo[2,3-d]pyrimidin-5-yl}-2,3-dihydro-1H-isoindol-1-one], for which the pIC50 was 7.17 in test [1] and 7.23 against mutant G2019S LRRK2.

In the case of `C[C@H]1CCCN(c2ncnc3[nH]cc(-c4cnc5cc[nH]c5c4)c23)C1` [Example 55, 4-[(3S)-3-methylpiperidin-1-yl]-5-(1H-pyrrolo[3,2-b]pyridin-6-yl)-7H-pyrrolo[2,3-d]pyrimidine], the figures for the pIC50 (in test [1]; against mutant G2019S LRRK2) were 7.28 and 7.30, respectively.

Consider `C[C@H]1CCCN(c2ncnc3[nH]cc(-c4ccc(O)cc4)c23)C1` [Example 56, 4-{4-[(3S)-3-methylpiperidin-1-yl]-7H-pyrrolo[2,3-d]pyrimidin-5-yl}phenol], for which the figures for the pIC50 (in test [1]; on mutant G2019S LRRK2) were 7.59 and 7.55, respectively.

With `C[C@H]1CCCN(c2ncnc3[nH]cc(-c4ccc(C(N)=O)cc4)c23)C1` [Example 57, 4-{4-[(3S)-3-methylpiperidin-1-yl]-7H-pyrrolo[2,3-d]pyrimidin-5-yl}benzamide], the figures for the pIC50 (in test [1]; on mutant G2019S LRRK2) were 7.89 and 8.05, respectively.

In the case of `C[C@H]1CCCN(c2ncnc3[nH]cc(-c4cccc(O)c4)c23)C1` [Example 58, 3-{4-[(3S)-3-methylpiperidin-1-yl]-7H-pyrrolo[2,3-d]pyrimidin-5-yl}phenol], the values for the pIC50 (in test [1]; against mutant G2019S LRRK2) were 8.05 and 7.92, respectively.

As to `Cc1cnc(Cl)c(-c2c[nH]c3ncnc(N4CCC[C@H](C)C4)c23)c1` [Example 59, 5-(2-chloro-5-methylpyridin-3-yl)-4-[(3S)-3-methylpiperidin-1-yl]-7H-pyrrolo[2,3-d]pyrimidine], the pIC50 (in test [1]; at mutant G2019S LRRK2) was 7.52 throughout.

Regarding `C[C@H]1CCCN(c2ncnc3[nH]cc(-c4cccc(C(N)=O)c4)c23)C1` [Example 60, 3-{4-[(3S)-3-methylpiperidin-1-yl]-7H-pyrrolo[2,3-d]pyrimidin-5-yl}benzamide], the pIC50 in test [1] was 7.07; against mutant G2019S LRRK2 it was 7.24.

For the molecule `N#Cc1cccc(-c2c[nH]c3ncnc(N4CCCC(F)C4)c23)c1` (centres unmarked) [Example 61, 3-[4-(3-fluoropiperidin-1-yl)-7H-pyrrolo[2,3-d]pyrimidin-5-yl]benzonitrile], the figures for the negative-log IC50 (pIC50) (in test [1]; at mutant G2019S LRRK2) were 7.92 and 7.10, respectively.

Regarding `CC1CCN(c2ncnc3[nH]cc(-c4cccc(C#N)c4)c23)CC1` [Example 62, 3-[4-(4-methylpiperidin-1-yl)-7H-pyrrolo[2,3-d]pyrimidin-5-yl]benzonitrile], the pIC50 is 7.04 in test [1] and 6.56 against mutant G2019S LRRK2.

For `C[C@H]1CCCN(c2ncnc3[nH]cc(-c4cccc(C(=O)O)c4)c23)C1` [Example 63, 3-{4-[(3S)-3-methylpiperidin-1-yl]-7H-pyrrolo[2,3-d]pyrimidin-5-yl}benzoic acid], the negative logarithm of the IC50 (pIC50) was 7.26 in test [1] and 7.41 against mutant G2019S LRRK2.

Regarding `CNc1ncnc2[nH]cc(-c3cccc(C#N)c3)c12` [Example 64, 3-[4-(methylamino)-7H-pyrrolo[2,3-d]pyrimidin-5-yl]benzonitrile], the results for the negative-log IC50 (pIC50) (in test [1]; on mutant G2019S LRRK2) were 7.35 and 7.01, respectively.
